Results on 36 compounds are retold here after patent US11541050B2, “Pyrimidine derivatives for the treatment of viral infections” (JANSSEN SCIENCES IRELAND UC, priority 2011, dated 2023).

Where only a bound is given, the exact number is not on record here.

Assay [1] concerns the target T1, human TLR7 (wild type sequence) (Homo sapiens, UniProt Q9NYK1).
T1 construct: expressed in transfected cells; host or cells: HEK293
T1 sequence (Q9NYK1 27-1049): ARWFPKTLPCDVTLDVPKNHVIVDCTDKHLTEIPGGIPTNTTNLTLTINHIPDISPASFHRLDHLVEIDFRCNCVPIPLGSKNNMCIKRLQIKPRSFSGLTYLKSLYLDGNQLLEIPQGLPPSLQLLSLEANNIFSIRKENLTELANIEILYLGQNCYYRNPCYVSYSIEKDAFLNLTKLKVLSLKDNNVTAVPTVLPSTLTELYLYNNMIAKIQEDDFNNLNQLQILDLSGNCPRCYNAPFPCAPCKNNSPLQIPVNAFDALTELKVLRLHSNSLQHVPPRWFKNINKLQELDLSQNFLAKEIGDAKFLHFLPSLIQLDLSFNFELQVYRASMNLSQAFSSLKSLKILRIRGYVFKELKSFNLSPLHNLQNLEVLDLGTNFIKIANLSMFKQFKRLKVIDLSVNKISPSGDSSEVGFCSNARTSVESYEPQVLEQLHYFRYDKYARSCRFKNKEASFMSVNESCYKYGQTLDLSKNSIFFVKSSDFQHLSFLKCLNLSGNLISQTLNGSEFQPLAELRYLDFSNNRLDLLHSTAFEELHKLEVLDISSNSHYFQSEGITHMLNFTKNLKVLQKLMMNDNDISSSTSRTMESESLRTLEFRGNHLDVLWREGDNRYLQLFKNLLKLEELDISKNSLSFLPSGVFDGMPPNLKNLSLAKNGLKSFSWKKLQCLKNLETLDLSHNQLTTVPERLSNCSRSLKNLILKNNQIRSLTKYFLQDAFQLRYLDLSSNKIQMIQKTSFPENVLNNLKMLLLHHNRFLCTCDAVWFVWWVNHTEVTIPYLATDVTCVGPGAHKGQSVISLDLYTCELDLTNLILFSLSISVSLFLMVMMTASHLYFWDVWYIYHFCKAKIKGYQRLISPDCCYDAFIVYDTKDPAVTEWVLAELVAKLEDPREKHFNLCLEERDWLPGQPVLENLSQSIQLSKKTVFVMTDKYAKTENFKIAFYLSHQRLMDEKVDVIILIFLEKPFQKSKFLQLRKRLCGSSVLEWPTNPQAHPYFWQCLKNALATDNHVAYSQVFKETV
The assay is described as follows: TLR7 cellular NFκB-luc reporter assay, wild type TLR7. In kind it is cell-based. The arrangement: unit not given here. The settings on record: lowest effective concentration; for TLR 7 wt LEC: wild type TLR7 (compounds 74 onward). As to the method: (§1) The ability of compounds to activate human TLR7 and/or TLR8 was assessed in a cellular reporter assay using HEK293 cells transiently transfected with a TLR7 or TLR8 expression vector and NFκB-luc reporter construct. In one instance the TLR expression construct expresses the respective wild type sequence or a mutant sequence comprising a deletion in the second leucine-rich repeat of the TLR.
(§2) Briefly, HEK293 cells were grown in culture medium (DMEM supplemented with 10% FCS and 2 mM Glutamine). For transfection of cells in 10 cm dishes, cells were detached with Trypsin-EDTA, transfected with a mix of CMV-TLR7 or TLR8 plasmid (750 ng), NFκB-luc plasmid (375 ng) and a transfection reagent and incubated for 48 hours at 37° C. in a humidified 5% CO2 atmosphere. Transfected cells were then detached with Trypsin-EDTA, washed in PBS and resuspended in medium to a density of 1.67×10^5 cells/mL. Thirty microliters of cells were then dispensed into each well in 384-well plates, where 10 μL of compound in 4% DMSO was already present. Following 6 hours incubation at 37° C., 5% CO2, the luciferase activity was determined by adding 15 μl of Steady Lite Plus substrate (Perkin Elmer) to each well and readout performed on a ViewLux ultraHTS microplate imager (Perkin Elmer). Dose response curves were generated from measurements performed in quadruplicates. Lowest effective concentrations (LEC) values, defined as the concentration that induces an effect which is at least two fold above the standard deviation of the assay, were determined for each compound.

Assay [2] addresses T2, human TLR8 (wild type sequence) (Homo sapiens, UniProt Q9NR97).
T2 construct: expressed in transfected cells; host or cells: HEK293
T2 sequence (Q9NR97 27-1041): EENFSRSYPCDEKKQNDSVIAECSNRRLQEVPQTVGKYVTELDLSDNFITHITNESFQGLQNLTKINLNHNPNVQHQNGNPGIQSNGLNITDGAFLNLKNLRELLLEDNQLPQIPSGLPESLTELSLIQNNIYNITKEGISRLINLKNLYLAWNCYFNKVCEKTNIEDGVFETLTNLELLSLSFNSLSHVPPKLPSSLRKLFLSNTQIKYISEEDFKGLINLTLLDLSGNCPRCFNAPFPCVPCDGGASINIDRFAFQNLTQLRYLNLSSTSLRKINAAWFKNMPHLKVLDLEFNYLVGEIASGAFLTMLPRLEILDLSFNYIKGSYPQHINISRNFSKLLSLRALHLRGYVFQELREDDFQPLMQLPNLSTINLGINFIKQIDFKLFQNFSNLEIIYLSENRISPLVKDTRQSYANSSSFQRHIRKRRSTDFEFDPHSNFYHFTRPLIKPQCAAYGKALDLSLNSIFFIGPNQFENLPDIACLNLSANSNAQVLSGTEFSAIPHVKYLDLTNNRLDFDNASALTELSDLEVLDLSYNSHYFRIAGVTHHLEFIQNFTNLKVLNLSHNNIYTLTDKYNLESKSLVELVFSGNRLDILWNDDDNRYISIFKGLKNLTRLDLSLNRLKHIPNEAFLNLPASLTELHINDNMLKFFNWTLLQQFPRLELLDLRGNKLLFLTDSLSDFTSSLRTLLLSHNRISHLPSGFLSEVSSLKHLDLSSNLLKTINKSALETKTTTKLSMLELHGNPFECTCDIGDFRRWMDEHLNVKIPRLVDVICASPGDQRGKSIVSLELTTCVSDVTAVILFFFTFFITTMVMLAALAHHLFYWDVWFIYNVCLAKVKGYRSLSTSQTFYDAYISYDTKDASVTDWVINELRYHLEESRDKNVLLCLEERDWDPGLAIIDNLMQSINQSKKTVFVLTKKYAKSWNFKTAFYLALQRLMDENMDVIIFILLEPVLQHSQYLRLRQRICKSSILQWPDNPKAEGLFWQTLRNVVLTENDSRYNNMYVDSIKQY
The assay is described as follows: TLR8 cellular NFκB-luc reporter assay, wild type TLR8. Type of assay: cell-based. On the set-up: unit not given here. The following applies: lowest effective concentration; for TLR 8 wt LEC: wild type TLR8 (compounds 74 onward). As to the method:
as §1, §2

Setting [3] is: wild type TLR7 (compounds 1-73).
Setting [4] is: wild type TLR8 (compounds 1-73).

In the case of `CCCCNc1nc(N)ncc1OCc1ccccc1` [Compound 1], the TLR7-wt_LEC in assay [1] (setting [3]) came out at 0.90. Besides, the TLR8-wt_LEC in assay [2] (setting [4]) was 2.42. Consider `CCCCNc1nc(N)ncc1OCCC` [Compound 5], for which the TLR7-wt_LEC in assay [1] (setting [3]) amounted to 6.18. For the same compound, the TLR8-wt_LEC in assay [2] (setting [4]) stood at 4.53. The like results for `CCCCNc1nc(N)ncc1OCCCc1ccccc1` [Compound 19] were, in that order, 1.53 and 7.94.

In turn, `CCCCNc1nc(N)ncc1OCc1c(C)noc1C` [Compound 36] gave a TLR8-wt_LEC in assay [2] (setting [4]) of 1.68. The same measure, in the same setting: in the case of `CCCCNc1nc(N)ncc1OCc1ccc2ccccc2n1` [Compound 41] it was 0.83; in that of `CCCCNc1nc(N)ncc1OCc1nccc(OC)c1OC` [Compound 42], 1.15. On the same count and under the same terms, in the case of `CCCCNc1nc(N)ncc1OCc1cc(C)nn1C` [Compound 48] it was 1.75. On the same count and under the same terms, in the case of `CCCC[C@@H](CCO)Nc1nc(N)ncc1OC` [Compound 54] it was 1.40; in that of `CCC[C@@H](CO)Nc1nc(N)ncc1OC` [Compound 55], 0.16. In assay [2] (setting [4]), `CCC[C@@H](CCO)Nc1nc(N)ncc1OC` [Compound 57] gave a TLR8-wt_LEC of 1.80. Consider `CCCC[C@@H](CO)Nc1nc(N)ncc1OC` [Compound 59], for which the TLR8-wt_LEC in assay [2] (setting [4]) is 0.36. As for `CCCC(CO)Nc1nc(N)ncc1OC` (stereo not drawn) [Compound 62], the TLR7-wt_LEC in assay [1] (setting [3]) is 21.26. In assay [2] (setting [4]), this compound registered a TLR8-wt_LEC of 0.55. The like results for `CCCC(C)Nc1nc(N)ncc1OC` (stereo not drawn) [Compound 65] were, in that order, 21.59 and 3.68. In assay [2] (setting [4]), `COc1cnc(N)nc1NCCCC(F)(F)F` [Compound 66] yielded a TLR8-wt_LEC of 9.03. In assay [2] (setting [4]), `CC[C@H](C)[C@@H](CO)Nc1nc(N)ncc1OC` [Compound 68] yielded a TLR8-wt_LEC of 0.56. Same read-out and setting: in the case of `CCC[C@H](CO)Nc1nc(N)ncc1OC` [Compound 72] it was 6.57.

In assay [2] (setting [4]), `CCCC[C@H](CO)Nc1nc(N)ncc1OC` [Compound 73] registered a TLR8-wt_LEC of 0.80. On to `CCCCNc1nc(N)ncc1OCc1cccnn1` [Compound 78], for which the “TLR 7 wt LEC” value in assay [1] turned out to be 0.519. Further, the “TLR 8 wt LEC” value in assay [2] is listed as 0.827. Turning to `C=CCNc1nc(N)ncc1OC` [Compound 90], the “TLR 7 wt LEC” value in assay [1] is greater than 25. The “TLR 8 wt LEC” value in assay [2] is 8.460. `COc1cnc(N)nc1NCCC1CC1` [Compound 91]: in assay [1], the “TLR 7 wt LEC” value is greater than 25. Further, in assay [2], the “TLR 8 wt LEC” value is on record as 20.850.

On to `COc1cnc(N)nc1N[C@H](CO)CC(C)C` [Compound 93], for which the “TLR 7 wt LEC” value in assay [1] was greater than 25. Further, the “TLR 8 wt LEC” value in assay [2] was determined as 15.880. The like results for `CCCCNc1nc(N)ncc1OCc1nccc2ccccc12` [Compound 123] were, in that order, 0.008 and 0.143.

In the case of `CCCCNc1nc(N)ncc1OCc1ccc2ccccc2n1` [Compound 157], the “TLR 7 wt LEC” value in assay [1] was 0.333. Besides, the “TLR 8 wt LEC” value in assay [2] is listed as 1.110. For `CCCCNc1nc(N)ncc1OCCCc1ccccc1C(F)(F)F` [Compound 162], in assay [1], the “TLR 7 wt LEC” value is 11.850. In assay [2], the “TLR 8 wt LEC” value is reported as greater than 25. With `CCCCNc1nc(N)ncc1OCc1nc(C)oc1C` [Compound 178], in assay [1], the “TLR 7 wt LEC” value is 0.810. In assay [2], the “TLR 8 wt LEC” value is 0.410. The like results for `CCCCNc1nc(N)ncc1OCc1nccc(OC)c1OC` [Compound 180] were, in that order, 0.135 and 0.524. Regarding `CCCCNc1nc(N)ncc1OCc1nn(C)c2ccccc12` [Compound 182], in assay [1], the “TLR 7 wt LEC” value stood at 0.014. Further, in assay [2], the “TLR 8 wt LEC” value came out at 0.178. The like results for `CCCCNc1nc(N)ncc1OCc1csc(C)n1` [Compound 191] were, in that order, 0.286 and 0.743.

Regarding `CCCCNc1nc(N)ncc1OCc1nc2ccccc2[nH]1` [Compound 193], the “TLR 7 wt LEC” value in assay [1] was determined as 0.032. Further, the “TLR 8 wt LEC” value in assay [2] was 0.654. With `CCCCNc1nc(N)ncc1OCc1cnccn1` [Compound 199], the TLR7-wt_LEC in assay [1] (wild type TLR7) is recorded as 0.512. The compound further registered a TLR8-wt_LEC in assay [2] of 0.218.

Turning to `CCCCNc1nc(N)ncc1OCc1nc2ccccc2s1` [Compound 222], the TLR7-wt_LEC in assay [1] (wild type TLR7) came to 0.277.

On to `CCCCNc1nc(N)ncc1OCc1cc2ccccn2n1` [Compound 224], for which the TLR7-wt_LEC in assay [1] (wild type TLR7) is 0.206. As to `CCCC[C@H](CCO)Nc1nc(N)ncc1OC` [Compound 229], the TLR7-wt_LEC in assay [1] (wild type TLR7) was greater than 25.

Regarding `CCCCNc1nc(N)ncc1OC(C)C` [Compound 233], the TLR7-wt_LEC in assay [1] (wild type TLR7) was 10.070. Turning to `COc1cnc(N)nc1N[C@H](CCO)CC(C)C` [Compound 261], the TLR7-wt_LEC in assay [1] (wild type TLR7) is 10.790. The compound `CCC(C)[C@H](CCO)Nc1nc(N)ncc1OC` (stereo partly drawn) [Compound 275] showed a TLR7-wt_LEC in assay [1] (wild type TLR7) of 10.380.
